Laboratory results: patent publication US20230333087A1, “METHODS FOR MONITORING PATIENT RESPONSE TO TREATMENT OF RETINAL OXIDATIVE DISEASES” (BioJiva LLC, priority 2022, published 2023)

How the values were obtained:
[1] = D-DHA content of neural retina and RPE on 0.25% D-DHA diet by mass spectrometry; format: in vivo, C57BL/6J mice; conditions: for % D-substitution: 4 weeks diet + IVT injection + 1 week
Source text: To determine the pharmacokinetics of ocular D-DHA uptake, incorporation and elimination from the neural retina and RPE/choroid/sclera, twelve-week-old C57BL/6J mice were fed a 0.5% D-DHA containing diet (0.5 g D-DHA/100 g food, Table 3) for 77 days followed by an additional 73-day wash-out phase with DHA. At 4 weeks, >55% of the DHA in the retina was D-DHA rising to >60% at 5 weeks (FIG. 6A). At similar time points, D-DHA in the RPE/choroid/sclera was >80%. […] Based on the accretion and elimination data, two-month-old mice were fed with diets containing either D-DHA or natural DHA control for 1 week, 2 weeks, 3 weeks, and 4 weeks before the IVT injection of iron and saline control (FIG. 6B). In order to better approximate typical DHA doses in human prescription omega-3 supplements (e.g. 1,500 mg/day DHA in Lovaza), the D-DHA and DHA experimental mouse diets were adjusted to 0.25% instead of 0.5% for most of the study. On a 0.25% D-DHA diet, retinal D-DHA levels exceeded 50% at five weeks (52.2±1.5% and 55% of total DHA by our GC- and LC- based MS methods, respectively), regardless of whether eyes were injected with iron or control saline (Table 3).
The extent to which D-DHA replaced natural DHA was determined by LC/MS by feeding an experimental diet containing 0.25% D-DHA for increasing periods of time. Microdissected samples of neural retina and RPE from mice fed the experimental diet for 4 weeks were analyzed after given IVT iron or control saline, and then continued on the experimental diet for another week. It was confirmed that 22.6% of DHA in the control diet consisted of isotopomers due to natural abundance ^13C and no D-DHA. Therefore, signals from the 327.2/283.2 transition represent 78.4% of the total DHA. The experimental diet contained no detectable natural DHA, but rather a distribution of deuterium-substituted DHA isotopologues (FIGS. 11A-C), which is a consequence of the D-DHA preparation method. After corrections were applied for natural abundance ^13C, it was determined that the D10-DHA isotopologue comprised 45.6% of the D-DHA species in the analyzed sample, with Ds-DHA, D9-DHA, D11-DHA, and D12-DHA isotopologues comprising the balance. Therefore, signals from the 337.2/293.2 transition represented 45.6% of the D-DHA. With these corrections applied, D-DHA isotopologues as a percentage of total DHA (i.e., D-DHA + DHA) was determined to be 59.3-60.8 % in isolated RPE, and 55.0 % in neural retina.
Adult male wild-type C57BL/6J mice (Stock No.000664, Jackson Labs, Bar Harbor, ME, USA) were housed in standard conditions under cyclic light (12 h:12 h light-dark cycle). Mice had ad libitum access to water and food. Beginning at 2 mo of age, mice were placed on the AIN93G diet described above, supplemented with 0.25% D-DHA or DHA (control diet) for 1 week, 2 weeks, 3 weeks, or 4 weeks prior to the intravitreal injection. Mice were given an intravitreal injection of 1 µl 0.5 mM ferric ammonium citrate diluted in 0.9% NaCl (saline) (MP Biomedicals LLC, Santa Ana, CA) or
Three types of mass spectrometric analysis were performed to confirm repeatability of results. In the first, lipids were extracted from retinas by a modified Folch method (CHCl3/CH3OH, 2:1). derivatized to fatty acid methyl esters (FAME), and analyzed by high resolution capillary gas chromatography and specialized chemical ionization tandem mass spectrometry. Baseline resolved DHA and D-DHA total ion signal were integrated, and the proportions of D-DHA/total DHA were calculated. The second type of mass spectrometric analysis was performed on samples of the control and experimental diets, as well as microdissected neural retina and RPE from animals on the experimental diet. Lipids were extracted and saponified, and analyzed by ESI-LC/MS on a 4000 QTrap (Sciex) operating in enhanced negative mode over an m/z range of 320 - 345 and a scan rate of 250 /sec. […]

retinal function = assay: Electroretinography; format: in vivo, C57BL/6J mice
Method: Electroretinography was conducted on mice fed with D-DHA or natural DHA for 4 weeks to evaluate retinal function. […] Thus, using this measure, incorporation of D-DHA had no impact on retinal function (FIG. 7A). […] Toluidine blue staining was performed on plastic sections to examine retinal histology.
Mice were dark adapted overnight and anesthetized with the same procedure. The electroretinograms were recorded with an Espion E3 system (Diagnosys LLC, Lowell, MA) with a ganzfeld Color Dome stimulator as previously described. All electroretinography were performed at the same time of day.

[2] = D-DHA substitution rates in plasma, red blood cells and retina of mice on 0.5% w/w D-DHA diet; format: in vivo, C57BL/6J mice; conditions: for doubling interval of D-DHA substitution rate: first order kinetics
Source text: Mature adult C57BL/6J mice were fed for 78 days with a customized rodent diet containing 0.5% w/w D-DHA and no natural DHA. The animals were sacrificed, and plasma, red blood cells and retinal tissues were dissected at study Days 8, 19, 38, 78, (six animals per time point, 3 males + 3 females). D-DHA + DHA were extracted from samples and derivatized into methyl esters with a mixture of heptane/ toluene (63:37 by volume), and methanol/ dimethoxypropane/ sulfuric acid (85:11:4 by volume) by gentle shaking at 80° C. for 2 hours, followed by separation and drying down of the organic phase under nitrogen. D-DHA + DHA methyl esters were structurally identified and quantified by gas chromatography coupled with a tandem mass spectrometry detector and D-DHA substitution levels (in percent of total DHA) were calculated. The results are represented in Table 1 and graphed in FIG. 1.

[3] = test system: lipid peroxidation in a lipid membrane; conditions: present at 1% fraction of the total PUFAs in a lipid membrane in vitro; cited from earlier work

SMILES: [2H]C([2H])(/C=C\CC)/C=C\C([2H])([2H])/C=C\C([2H])([2H])/C=C\C([2H])([2H])/C=C\C([2H])([2H])/C=C\CCC(=O)OCC [D-DHA, 6,6,9,9,12,12,15,15,18,18-D10-(4Z,7Z,10Z,13Z,16Z, 19Z)-docosa 4,7,10,13,16, 19-hexaenoic acid ethyl ester]
- retinal D-DHA levels (% of total DHA) ([1]; 0.25% D-DHA diet, five weeks (4+1), neural retina, LC-based MS method): 55%
- retinal D-DHA levels (% of total DHA) ([1]; 0.25% D-DHA diet, five weeks, GC-based MS method): 52.2±1.5%
- retinal D-DHA levels ([1]; 0.25% D-DHA diet, five weeks, iron or saline injected eyes): exceeded 50%
- % D-substitution ([1]; RPE cells, D-DHA + Fe): 59.3 ± 3.9%
- % D-substitution ([1]; RPE cells, D-DHA + saline): 60.8 ± 2.1%
- D-DHA isotopologues as a percentage of total DHA ([1]; isolated RPE, 0.25% diet, 4+1 weeks, LC/MS): 59.3-60.8%
- substitution of DHA with D-DHA in the neural retina ([1]; mice fed with D-DHA for 4 weeks): > 50%
- % D-substitution ([1]; neural retina, D-DHA + Fe): 55.0 ± 3.3%
- % D-substitution ([1]; neural retina, D-DHA + saline): 55.0 ± 1.8%
- rod-b wave, rod-a wave and cone-b wave amplitudes (retinal function; 4 weeks diet, mice not given IVT injections, compared to natural DHA): no significant difference
- rod b-wave, rod a-wave and cone-b wave amplitudes (retinal function; iron injected eyes, ≥50% retinal D-DHA, 1 week after injection, compared to DHA plus iron): marked protection
- D-DHA substitution levels (in percent of total DHA) ([2]; neuroretina, day 8): 20.89%
- D-DHA substitution levels (in percent of total DHA) ([2]; neuroretina, day 19): 42.94%
- D-DHA substitution levels (in percent of total DHA) ([2]; neuroretina, day 38): 70.74%
- D-DHA substitution levels (in percent of total DHA) ([2]; neuroretina, day 78): 92.10%
- D-DHA substitution levels (in percent of total DHA) ([2]; plasma, day 8 after first exposure, 0.5% w/w D-DHA diet): 84.78%
- D-DHA substitution levels (in percent of total DHA) ([2]; plasma, day 19): 94.17%
- D-DHA substitution levels (in percent of total DHA) ([2]; plasma, day 38): 97.34%
- D-DHA substitution levels (in percent of total DHA) ([2]; plasma, day 78): 98.43%
- doubling interval of D-DHA substitution rate ([2]; plasma): 6 to 7 days
- D-DHA substitution levels (in percent of total DHA) ([2]; red blood cells, day 8): 48.24%
- D-DHA substitution levels (in percent of total DHA) ([2]; red blood cells, day 19): 72.84%
- D-DHA substitution levels (in percent of total DHA) ([2]; red blood cells, day 38): 94.12%
- D-DHA substitution levels (in percent of total DHA) ([2]; red blood cells, day 78): 96.65%
- doubling interval of D-DHA substitution rate ([2]; red blood cells): ~10 days
- doubling interval of D-DHA substitution rate ([2]; retina): 20 to 22 days
- inhibition of LPO in liposomes [3]: efficiently inhibited the LPO
